Columns and labels:
[1] = peak plasma level after oral administration to rats; assay type: in vivo; settings: orally administered to rats
Experimental: First, Burzynski et al. (Drugs Exptl. Clin. Res. 12 Suppl. 1, 11-16 (1986)) reported complete colony reduction of HBL-100 and Ki No. 1 tumor cell lines with 5.0 mg/mL of either phenylacetic acid or antineoplaston AS2-1. […] Under typical administration regimes of antineoplaston AS2-1, the peak plasma levels of phenylacetic acid are approximately […], roughly […] less than the cytostatic concentration observed in tissue culture experiments.

[2] = system: human breast cancer cell line MDA-MB-231; settings: cited from earlier work
[3] = system: KMCH-1; settings: cited from earlier work
[4] = system: KYN-1; settings: cited from earlier work
[5] = system: KIM-1; settings: cited from earlier work
[6] = system: rat Nb2 lymphoma; settings: cited from earlier work
[7] = system: human colon adenocarcinoma; settings: cited from earlier work
[8] = system: S180 cells; settings: mice implanted with S180 cells; cited from earlier work
[9] = system: cancer; settings: clinical trials; cited from earlier work
[10] = cited from earlier work
[11] = orally administered to rats; cited from earlier work
[12] = cited from earlier work; remark: listed apart in the source
[13] = system: breast carcinoma cell line HBL-100; settings: cited from earlier work
[14] = system: Ki-1; settings: cited from earlier work
[15] = system: human promyelocytic leukemia HL-60; settings: cited from earlier work
[16] = system: chronic lymphocytic leukemia; settings: cited from earlier work
[17] = system: neuroblastoma; settings: cited from earlier work
[18] = system: murine fibrosarcoma V7T; settings: cited from earlier work
[19] = system: hormonally refractory prostate adenocarcinoma PC3; settings: cited from earlier work
[20] = system: astrocytoma; settings: cited from earlier work
[21] = system: medulloblastoma; settings: cited from earlier work
[22] = system: malignant melanoma; settings: cited from earlier work
[23] = system: ovarian carcinoma; settings: cited from earlier work
[24] = system: premalignant mesenchymal C3H 10T1/2 cells; settings: cited from earlier work
[25] = system: K562 erythroleukemia cells; settings: cited from earlier work

O=C1CCC(NC(=O)Cc2ccccc2)C(=O)N1 (centres unmarked) [3-phenylacetylamino-2,6-piperidinedione]
peak plasma level, fold less than the cytostatic concentration in tissue culture [1]: roughly 10 fold
concentration at which cytostasis was observed ([2]; MDA-MB-231): 2.0 mg/mL
effect on cultured MDA-MB-231 [2]: cytostatic effect
inhibition of the growth curve [3]: Dose-dependent inhibition
inhibition of the growth curve [4]: Dose-dependent inhibition
inhibition of the growth curve [5]: Dose-dependent inhibition
inhibition of the growth curve [6]: Dose-dependent inhibition
inhibition of the growth curve [7]: Dose-dependent inhibition
cAMP levels in the livers and tumors of treated mice relative to control mice [8]: significantly elevated
efficacy in treating cancer [9]: effective in treating cancer
solubility in water [10]: poorly soluble in water
peak plasma level [11]: approximately 0.2 mg/mL
clearance in vivo [12]: rapidly cleared in vivo

O=C(O)Cc1ccccc1 [phenylacetic acid]
concentration giving complete colony reduction [13]: 5.0 mg/mL
growth inhibition [13]: dose-dependent growth inhibition
concentration giving complete colony reduction ([14]; Ki No. 1): 5.0 mg/mL
growth inhibition ([14]; Ki-1): dose-dependent growth inhibition
terminal differentiation or phenotypic reversion [15]: promoted terminal differentiation or phenotypic reversion
terminal differentiation or phenotypic reversion [16]: promoted terminal differentiation or phenotypic reversion
terminal differentiation or phenotypic reversion [17]: promoted terminal differentiation or phenotypic reversion
terminal differentiation or phenotypic reversion [18]: promoted terminal differentiation or phenotypic reversion
terminal differentiation or phenotypic reversion [19]: promoted terminal differentiation or phenotypic reversion
terminal differentiation or phenotypic reversion [20]: promoted terminal differentiation or phenotypic reversion
terminal differentiation or phenotypic reversion [21]: promoted terminal differentiation or phenotypic reversion
terminal differentiation or phenotypic reversion [22]: promoted terminal differentiation or phenotypic reversion
terminal differentiation or phenotypic reversion [23]: promoted terminal differentiation or phenotypic reversion
adipocyte conversion [24]: caused adipocyte conversion
tumor progression in premalignant cells ([24]; in distinction to 5-aza-2-deoxycitidine): did not cause tumor progression
hemoglobin production [25]: enhanced hemoglobin production
